The values below come from ChEMBL document CHEMBL3046294, “Fungicidal properties of the essential oil of Hesperozygis marifolia on Aspergillus flavus link” (2011).

The structures appear in SMILES notation. Activity calls are given as the source filed them. The rule behind the calls is not given here.

The test system of experiment [1] is Aspergillus flavus. Put plainly: Antifungal activity against Aspergillus flavus assessed as inhibition of mycelial growth measured after 72 hr at 28 +/- 1 degC. The format is functional, organism-based.
Experiment [2] concerns Aspergillus flavus. Put plainly: Antifungal activity against Aspergillus flavus assessed as inhibition of mycelial growth measured after 72 hr at 0.8 mg/mL at 28 +/- 1 degC. Type of experiment: functional, organism-based.
The subject of experiment [3] is Frankliniella occidentalis. As to the kind of experiment: Insecticidal activity against Frankliniella occidentalis (western flower thrips) assessed as mortality at 1 ul/45mL. The format is functional.

As for `CC(C)[C@H]1CC[C@@H](C)CC1=O` (relative stereo), the inhibition result in experiment [1] was “inactive”. Take `CC(C)[C@H]1CC[C@H](C)CC1=O` (relative stereo): the inhibition entry in experiment [1] is “inactive”. For the molecule `CC(C)=C1CC[C@@H](C)CC1=O` [PULEGONE], the inhibition entry in experiment [2] is “Active”. Moreover, the mortality (usually the percentage killed) in experiment [3] came out at 100%.
